In US20240246920A1, “TRIAZOLE DERIVATIVES WITH ANTIFUNGAL ACTIVITY” (King's College London, priority 2020, published 2024):
In brackets after ≈: the same amount, converted by molar mass. Where two headings read alike, the source gives them in different places.

Columns and labels:
C. albicans NCPF3281 = assay: Candida panel MIC, serial dilution in 96-well plates; type: cell-based, Candida albicans; settings: NCPF3281, read-out: MIC C. albicans NCPF3281
Protocol: (§1) The minimum inhibitory concentration of test compounds were determined in a panel of Candida species (see Table 4 below), using the a serial dilution method in 96-well plates using the following protocol.
(§2) Starter cultures of fungal strains to be tested were grown in 3 mL of RPMI 2% glucose media incubated at 37° C. with shaking at 200 rpm overnight. The culture media used was 900 mL H2O; 10.4 g RPMI 1640 (with L-glutamine and a pH indicator but without bicarbonate); 34.5 g MOPS and 18 g glucose. The pH of the media was adjusted to 7.0 with 1 M sodium hydroxide.
(§3) Solutions of the compound to be tested were prepared by dissolving the compound in DMSO and subsequently into media to the desired concentrations. 200 μL of compound solution was then added to the wells of the 96-well plate using a serial dilution method row-by row of the plate to give a compound concentration gradient across the plate of from 128 μg/mL to 0.25 μg/mL. The last two rows of each plate were control rows containing the culture media alone and the media plus fungi.
(§4) The fungi starter cultures were diluted 1:10 in water in cuvettes. This was then further diluted to an optical density (OD600) of 0.01 in media. 100 μL of the fungi was added to each well giving a starting concentration of fungus of 0.5-5×10^5/mL. One species of fungus was used on each plate. The plates were then held at 37° C. for 24 hours.
(§5) A plate reader was used to measure growth in each well at OD530 nm and the MIC was determined for each test compound. The MIC is defined as the lowest concentration giving rise to inhibition of ≥50% of that of the drug-free control well containing the fungus and media.

C. glabrata NCPF8018 = assay: as above; type: cell-based, Candida glabrata; settings: Nakaseomyces glabratus
Protocol: as §1, §2
(§6) Solutions of the compound to be tested were prepared by dissolving the compound in DMSO and subsequently into media to the desired concentrations. […] The last two rows of each plate were control rows containing the culture media alone and the media plus fungi.
as §4, §5

C. krusei NCPF3876 = assay: microbe, parasite or virus in culture; type: cell-based, Candida krusei; settings: Pichia kudriavzevii
Protocol: as §1, §2, §6, §4, §5

C. parapsilosis NCPF3209 = assay: microbe, parasite or virus in culture; type: cell-based, Candida parapsilosis; settings: Lodderomyces parapsilosis
Protocol: as §1, §2, §6, §4, §5

Candida auris TDG2211 = assay: microbe, parasite or virus in culture; type: cell-based; settings: Candidozyma auris, TDG2211; Table 4, extended panel; 24 hours, ≥50% inhibition; read-out: MIC Candida auris TDG2211
Protocol: as §1, §2, §6, §4, §5
(§7) The Candida auris strains shown in Table 7 were either taken from the National Collection of Pathogenic Fungi (NCPF) or collected as part of ongoing surveillance studies. The strains were characterised as follows.

Candida auris TDG2506 = assay: microbe, parasite or virus in culture; type: cell-based; settings: Candidozyma auris, TDG2506; Table 4, extended panel; 24 hours, ≥50% inhibition; read-out: MIC Candida auris TDG2506
Protocol: as §1, §2, §6, §4, §5, §7

C. auris TDG1912 = assay: Candida panel MIC, serial dilution in 96-well plates; type: cell-based; settings: Candidozyma auris, TDG1912; Table 4; 24 hours, ≥50% inhibition; read-out: MIC C. auris TDG1912
Protocol: as §1, §2, §3, §4, §5

C. tropicalis NCPF8760 = assay: as above; type: cell-based
Protocol: as §1, §2, §3, §4, §5

Candida auris TDG1102 = assay: as above; type: cell-based; settings: Candidozyma auris, TDG1102; Table 4, extended panel; 24 hours, ≥50% inhibition; read-out: MIC Candida auris TDG1102
Protocol: as §1, §2, §3, §4, §5

Candida auris TDG2512 = assay: as above; type: cell-based; settings: Candidozyma auris, TDG2512; Table 4, extended panel; 24 hours, ≥50% inhibition; read-out: MIC Candida auris TDG2512
Protocol: as §1, §2, §3, §4, §5

C. auris 8971 = assay: as above; type: cell-based, Candida auris; settings: Candidozyma auris, 8971; Table 4, extended panel; 24 hours, ≥50% inhibition; read-out: MIC C. auris 8971
Protocol: as §1, §2, §6, §4, §5, §7

C. auris 8977 = assay: as above; type: cell-based, Candida auris; settings: Candidozyma auris, 8977; Table 4, extended panel; 24 hours, ≥50% inhibition; read-out: MIC C. auris 8977
Protocol: as §1, §2, §6, §4, §5, §7

C. auris 8984 = assay: as above; type: cell-based, Candida auris; settings: Candidozyma auris, 8984; Table 4, extended panel; 24 hours, ≥50% inhibition; read-out: MIC C. auris 8984
Protocol: as §1, §2, §6, §4, §5, §7

C. albicans 3363 = assay: Candida albicans panel MIC; type: cell-based; settings: Table 6, Candida albicans panel
Protocol: as §1, §2, §3, §4, §5
(§8) The compounds shown in Table 6 were tested against a further panel of Candida albicans.

C. albicans 3645 = assay: Candida albicans panel MIC; type: cell-based; settings: Table 6, Candida albicans panel
Protocol: as §1, §2, §3, §4, §5, §8

C. albicans 3880 = assay: Candida albicans panel MIC; type: cell-based; settings: Table 6, Candida albicans panel
Protocol: as §1, §2, §3, §4, §5, §8

C. albicans 3881 = assay: Candida albicans panel MIC; type: cell-based; settings: Table 6, Candida albicans panel
Protocol: as §1, §2, §3, §4, §5, §8

C. albicans 3882 = assay: Candida albicans panel MIC; type: cell-based; settings: Table 6, Candida albicans panel
Protocol: as §1, §2, §3, §4, §5, §8

C. albicans 3990 = assay: Candida albicans panel MIC; type: cell-based; settings: Table 6, Candida albicans panel
Protocol: as §1, §2, §3, §4, §5, §8

C. albicans 8112 = assay: Candida albicans panel MIC; type: cell-based; settings: Table 6, Candida albicans panel
Protocol: as §1, §2, §3, §4, §5, §8

[1] = Candida albicans, Table 4, common panel, 24 hours, ≥50% inhibition
[2] = Table 6, Candida albicans panel
[3] = NCPF8018, Table 4, common panel, 24 hours, ≥50% inhibition, read-out: MIC C. glabrata NCPF8018
[4] = NCPF3876, Table 4, common panel, 24 hours, ≥50% inhibition, read-out: MIC C. krusei NCPF3876
[5] = NCPF3209, Table 4, common panel, 24 hours, ≥50% inhibition, read-out: MIC C. parapsilosis NCPF3209
[6] = NCPF8760, Table 4, common panel, 24 hours, ≥50% inhibition, read-out: MIC C. tropicalis NCPF8760

Compound | MIC (C. albicans NCPF3281; [1]) | MIC (C. albicans NCPF3281; [2]) | MIC (C. glabrata NCPF8018; [3]) | MIC (C. krusei NCPF3876; [4]) | MIC (C. parapsilosis NCPF3209; [5]) | MIC (Candida auris TDG2211) | MIC (Candida auris TDG2506) | MIC (C. auris TDG1912) | MIC (C. tropicalis NCPF8760; [6]) | MIC (Candida auris TDG1102) | MIC (Candida auris TDG2512) | MIC (C. auris 8971) | MIC (C. auris 8977) | MIC (C. auris 8984) | MIC (C. albicans 3363) | MIC (C. albicans 3645) | MIC (C. albicans 3880) | MIC (C. albicans 3881) | MIC (C. albicans 3882) | MIC (C. albicans 3990) | further results
OC(CN1CCC2(CCC(Nc3ccc(Cc4ccccc4)cc3)CC2)C1)(Cn1cncn1)c1ccc(F)cc1F (stereo not shown) [Example 13, 1-(8-((4-benzylphenyl)amino)-2-azaspiro[4.5]decan-2-yl)-2-(2,4-difluorophenyl)-3-(1H-1,2,4-triazol-1-yl)propan-2-ol] | ≤ 0.125 µg/mL | ≤ 0.00098 µg/mL | 0.25 µg/mL (≈ 0.448 µM) | ≤ 0.125 µg/mL | ≤ 0.125 µg/mL | ≤ 0.125 µg/mL | ≤ 0.125 µg/mL | 0.25 µg/mL (≈ 0.448 µM) | ≤ 0.125 µg/mL | ≤ 0.125 µg/mL | ≤ 0.125 µg/mL | ≤ 0.125 µg/mL | ≤ 0.125 µg/mL | ≤ 0.125 µg/mL | 0.125 µg/mL (≈ 0.224 µM) | 0.00781 µg/mL (≈ 0.014 µM) | 0.25 µg/mL (≈ 0.448 µM) | 0.25 µg/mL (≈ 0.448 µM) | 0.0313 to 2 µg/mL (≈ 0.0561 to 3.59 µM) | 0.0625 µg/mL (≈ 0.112 µM) | MIC (C. albicans 8112): 0.00049 to 0.00391 µg/mL (≈ 0.000879 to 0.00701 µM)
OC(CN1CCC(Nc2ccc(OCc3ccccc3)cc2)CC1)(Cn1cncn1)c1ccc(F)cc1F (stereo not shown) [Example 90] | 0.00391 µg/mL (≈ 0.00753 µM) | 0.00391 µg/mL (≈ 0.00753 µM) | 0.0625 µg/mL (≈ 0.12 µM) | 0.0313 µg/mL (≈ 0.0602 µM) | 0.00391 µg/mL (≈ 0.00753 µM) | 0.003 µg/mL (≈ 0.00577 µM) | 0.003 µg/mL (≈ 0.00577 µM) |  | 0.0625 µg/mL (≈ 0.12 µM) | 0.0156 µg/mL (≈ 0.0301 µM) | 0.00391 µg/mL (≈ 0.00753 µM) | 0.003 µg/mL (≈ 0.00577 µM) | 0.00781 µg/mL (≈ 0.015 µM) | 0.003 µg/mL (≈ 0.00577 µM) | 0.008 to 0.03 µg/mL (≈ 0.0154 to 0.0577 µM) | 0.00391 µg/mL (≈ 0.00753 µM) | 0.00391 µg/mL (≈ 0.00753 µM) | 0.0078 to 0.0313 µg/mL (≈ 0.015 to 0.0602 µM) | 0.00391 µg/mL (≈ 0.00753 µM) | 0.0039 µg/mL (≈ 0.00751 µM) | MIC (C. glabrata NCPF8018; NCPF8018, read-out: MIC C. Glabrata NCPF8018): 0.0625 µg/mL (≈ 0.12 µM); MIC (C. krusei NCPF3876; NCPF3876, read-out: MIC C. Krusei NCPF3876): 0.0313 µg/mL (≈ 0.0602 µM); MIC (C. parapsilosis NCPF3209; NCPF3209, read-out: MIC C. Parapsilosis NCPF3209): 0.00391 µg/mL (≈ 0.00753 µM); MIC (C. tropicalis NCPF8760; NCPF8760, read-out: MIC C. Tropicalis NCPF8760): 0.0625 µg/mL (≈ 0.12 µM); MIC (C. albicans 8112): 0.00391 µg/mL (≈ 0.00753 µM)
OC(CN1CCC(N2CCC(Nc3ccc(OCCN4CCOCC4)cc3)CC2)CC1)(Cn1cncn1)c1ccc(F)cc1F (stereo not shown) [Example 92] | 2 µg/mL (≈ 3.2 µM) |  | > 32 µg/mL | > 32 µg/mL | 2 to 8 µg/mL (≈ 3.2 to 12.8 µM) | 8 to 32 µg/mL (≈ 12.8 to 51.1 µM) | 32 µg/mL (≈ 51.1 µM) | 32 µg/mL (≈ 51.1 µM) | > 32 µg/mL | 32 µg/mL (≈ 51.1 µM) | 4 µg/mL (≈ 6.39 µM) | 16 µg/mL (≈ 25.6 µM) | 8 µg/mL (≈ 12.8 µM) | 32 µg/mL (≈ 51.1 µM) |  |  |  |  |  |  | 
